In patent publication US20260373101A1, “POLYAMINATED FATTY ACIDS FOR USE AS POTENTIATORS OF ANTIBACTERIAL ACTIVITY” (priority 2023, published 2026):
Converted amounts (≈) assume the structure as drawn.

Key:
Format in all cases: cell-based
P. aeruginosa ATCC27853 = assay: Intrinsic antibacterial activity, standard microdilution (CLSI); details: Pseudomonas aeruginosa; P. aeruginosa ATCC27853, compound alone, 24 h, 37 °C
Method: (§1) The bacterial strains used in the examples below are the reference strains P. aeruginosa ATCC27853, E. coli ATCC25922, K. pneumoniae ATCC51296, S. aureus ATCC25923 and E. faecalis ATCC29212. The bacterial strains were previously stored in 15% (v/v) glycerol at −80 °C for cryoprotection. One colony of the fresh culture of each strain was incubated in a culture tube containing 3 ml of Mueller-Hinton broth (MH2) at 37 °C overnight with agitation. This suspension was used for inoculum preparation.
(§2) The antibacterial activity of said polyaminated fatty acid compounds was measured using a standard microdilution test based on Clinical and Laboratory Standards Institute (CLSI) guidelines. This method was slightly modified by increasing the assay volumes to 200 μl so as to improve reproducibility.
(§3) A negative control which corresponds to 2 ml of sterile culture medium and a positive control which corresponds to a mixture of 1980 μl of culture medium and 20 μl of bacterial suspension from a thawed biological strain (biological strains are stored at −80 °C in glycerol) were prepared.
(§4) The tubes were incubated in an incubator shaker “Infors” at 37 °C for 24 hours at 100 round per minute (rpm).
(§5) The polyaminated fatty acid compounds to be tested were prepared in water at a concentration of 10 mM.
(§6) The required volume of the microbial suspension to be inoculated was calculated for an optical density (OD) measured corresponding to a value equal to 0.01 in each well by using a spectrophotometer at 600 nm. In the microplate, the first row corresponded to the negative control (200 μl of sterile culture medium in each well), the second row to the positive control (seeded culture medium), the third row was loaded twice with bacterial suspension and with 8 μl of a given polyaminated fatty acid compound in each well. Subsequently, a half-fold cascade dilution was performed from this line. The first column was used as an inhibition control. A sterile filter was then placed on the microplate allowing the passage of gases but not contaminants. The microplate was incubated at 37 °C in a humid atmosphere for 24 hours. After 24 hours of incubation, an optical density measurement was performed by taking 100 μl of the bacterial suspension diluted in 900 μl of sterile culture medium.
(§7) The medium used was Mueller-Hinton medium (MH) for bacteria. All tests were performed in duplicate.
(§8) Table 1 below reports the intrinsic antibacterial activity of some polymaminated fatty acids prepared in example 1 (MIC in μM) as well as their toxicity towards eucaryotic cells (IC50 in μM).

S. aureus ATCC25923 = assay: as above; details: Staphylococcus aureus; S. aureus ATCC25923, compound alone, 24 h, 37 °C
Method: as §1, §2, §3, §4, §5, §6, §7, §8

E. coli ATCC28922 = assay: as above; details: Escherichia coli, ATCC28922, 24 h
[1] = tested on: Chinese hamster ovary cells (CHO-K1); assay: Toxicity on mammalian cells, WST1 assay; details: Cricetulus griseus; CHO-K1 cell viability, WST1, 24 h
Method: The WST1 assay was used to measure the cytotoxic activity of the polyaminated fatty acid compounds. It is a colorimetric assay that measures viability and cell proliferation rate. It is based on the cleavage of colorless tetrazolium salts WST-1 (4-[3-(4-iodophenyl)-2-(4-nitrophenyl)-2H-5-tetrazolio]-1,3-benzene disulfonate) by mitochondrial dehydrogenases into yellow formazan derivative, quantifiable by spectrophotometry at 420-480 nm.
The WST1 assay was performed on Chinese hamster ovary cells. CHO-K1 cells (ATCC, USA) were maintained in culture in “Mac Coy's 5A” medium supplemented with 10% fetal calf serum, 2 mM L-glutamine and streptomycin penicillin mixture (100 U/ml: 10 μg/ml). Incubation is carried out at 37 °C under CO2 enriched atmosphere (5% by volume) and subcultured every two days.
Cells are transferred to 96-well plates (25,000 cells/ml) in complete “Mac Coy's 5A medium”, and maintained for 24 h at 37 °C under a humid CO2-enriched atmosphere (5% by volume). Increasing concentrations of given polyaminated fatty acid compounds are added to the wells in duplicate assays and 8 growth controls containing cells in medium alone are included in each assay run. After 24 hours at 37 °C (5% CO2), the culture medium is removed, the cells are rinsed in phosphate buffer (PBS) and 50 μL of PBS containing 10% WST1 reagent is added to each well. After 20 minutes of incubation at 37 °C, the results are read by spectrophotometry at 450 nm.
The results are expressed as dose-response relationships, modeled by a non-linear regression analysis using TableCurve software. The 50% Inhibitory Concentration (IC50) represents the concentration of polyaminated fatty acid compound capable of reducing cell viability by 50%.

E. coli AG-100A = assay: Potentiation of known antibiotics (MIC of antibiotic alone or with PAFA); details: Escherichia coli, AG100A, 24 h
Method: (§9) 100 μl of a liquid culture medium is deposited in each well of a 96-well microplate, and then inoculated with the bacterial suspension of example 2.1 prepared for the positive control. The volume needed to inoculate is calculated for an OD of 0.01 which corresponds to approximately 5,106 bacteria in each well. In this plate, the first row corresponds to a negative control (200 μl of sterile culture medium in each well), the second row to a positive control (100 μl of sterile culture medium with 100 μl of the bacterial suspension), the third row contains 192 μl of culture medium and 8 μl of an antibiotic solution (10 mg/ml) to be tested in each well. Subsequently, a cascade dilution is performed from this line. Next, 10 μl of a fatty acid solution (10 μM final concentration) is added to each well of the lines. Then, 90 μl of bacterial suspension is added to lines 3 to 8. The MIC of the antibiotic tested is determined after 24 hours of incubation at 37 °C in a humid atmosphere.
(§10) The table 3 below reports the antibacterial activity (MIC in μg/mL) of a combination of some polyaminated fatty acids prepared in example 1 with various antibacterial drugs: doxycycline (DOX), tetracycline (TET), oxytetracycline (OXY) and minocycline (MINO), against various bacterial strains of P. aeruginosa (PA01, PA0509, and PA263), and of E. coli (AG-100 and AG-100A).

E. coli AG-100 = assay: as above; details: Escherichia coli, AG100, 24 h
Method: as §9, §10

P. aeruginosa PA01 = assay: as above; details: Pseudomonas aeruginosa, PA01, 24 h
Method: as §9, §10

P. aeruginosa PA0509 = assay: as above; details: Pseudomonas aeruginosa, PA0509, 24 h
Method: as §9, §10

P. aeruginosa PA263 = assay: as above; details: for MIC: Pseudomonas aeruginosa, PA263, 24 h, 24 h
Method: as §9, §10

[2] = MIC of antibiotic, +PAFA10 (10 μM)
[3] = MIC of antibiotic, +PAFA11 (10 μM)
[4] = MIC of antibiotic, +PAFA14 (10 μM)
[5] = MIC of antibiotic, AG-100, +PAFA10 (10 μM)
[6] = MIC of antibiotic, AG-100, +PAFA11 (10 μM)
[7] = MIC of antibiotic, AG-100, +PAFA14 (10 μM)
[8] = MIC of antibiotic, PA01, +PAFA10 (10 μM)
[9] = MIC of antibiotic, PA01, +PAFA11 (10 μM)
[10] = MIC of antibiotic, PA01, +PAFA14 (10 μM)
[11] = MIC of antibiotic, PA0509, +PAFA10 (10 μM), 24 h
[12] = MIC of antibiotic, PA0509, +PAFA11 (10 μM), 24 h
[13] = MIC of antibiotic, PA0509, +PAFA14 (10 μM), 24 h
[14] = MIC of antibiotic, PA263, +PAFA10 (10 μM)
[15] = MIC of antibiotic, PA263, +PAFA11 (10 μM)
[16] = MIC of antibiotic, PA263, +PAFA14 (10 μM)

Row | SMILES | MIC (P. aeruginosa ATCC27853) [µM] | MIC (S. aureus ATCC25923) [µM] | MIC (E. coli ATCC28922) [µM] | IC50 [1] [µM] | MIC (E. coli AG-100A; Antibiotic alone) [µg/mL] | MIC (E. coli AG-100A; [2]) [µg/mL] | MIC (E. coli AG-100A; [3]) [µg/mL] | MIC (E. coli AG-100A; [4]) [µg/mL] | MIC (E. coli AG-100; AG-100, Antibiotic alone) [µg/mL] | MIC (E. coli AG-100; [5]) [µg/mL] | MIC (E. coli AG-100; [6]) [µg/mL] | MIC (E. coli AG-100; [7]) [µg/mL] | MIC (P. aeruginosa PA01; [8]) [µg/mL] | MIC (P. aeruginosa PA01; [9]) [µg/mL] | MIC (P. aeruginosa PA01; [10]) [µg/mL] | MIC (P. aeruginosa PA01; PA01, Antibiotic alone) [µg/mL] | MIC (P. aeruginosa PA0509) [µg/mL] | MIC (P. aeruginosa PA0509; [11]) [µg/mL] | MIC (P. aeruginosa PA0509; [12]) [µg/mL] | MIC (P. aeruginosa PA0509; [13]) [µg/mL] | other results
1 | CCCCCCCC/C=C\CCCCCCCC(=O)NCCCNCCCCNCCCN [PAFA1] | > 200 | > 200 | > 200 | 152 |  |  |  |  |  |  |  |  |  |  |  |  |  |  |  |  | 
2 | CN(C)c1ccc(O)c2c1C[C@H]1C[C@H]3[C@H](N(C)C)C(O)=C(C(N)=O)C(=O)[C@@]3(O)C(O)=C1C2=O [MINO, minocycline] |  |  |  |  | 0.25 | 0.25 | 0.25 | 0.004 | 1 | 0.13 | 0.13 | 0.004 | 2 | 4 | 0.5 | 16 | 1 | 0.5 | 0.5 | 0.063 | fold reduction in MIC (MIC alone / MIC with PAFA) (P. aeruginosa PA263; PA263, +PAFA11 (10 μM)): 2; MIC (P. aeruginosa PA263; [14]): 4 µg/mL; MIC (P. aeruginosa PA263; [15]): 8 µg/mL; MIC (P. aeruginosa PA263; [16]): 2 µg/mL; MIC (P. aeruginosa PA263; PA263, Antibiotic alone): 16 µg/mL
3 | CCCCC/C=C\C/C=C\CCCCCCCC(=O)NCCCN [PAFA7] | > 200 | 50 (≈ 16.8 µg/mL) | 100 (≈ 33.7 µg/mL) | 168 |  |  |  |  |  |  |  |  |  |  |  |  |  |  |  |  | 
4 | CN(C)[C@@H]1C(O)=C(C(N)=O)C(=O)[C@@]2(O)C(O)=C3C(=O)c4c(O)cccc4[C@@](C)(O)[C@H]3C[C@@H]12 [TET, tetracycline] |  |  |  |  | 1 | 0.5 | 0.5 | 0.008 | 1 | 0.5 | 0.25 | 0.008 | 8 | 8 | 2 | 32 | 1 | 0.5 | 0.25 | 0.125 | fold reduction in MIC (MIC alone / MIC with PAFA) (P. aeruginosa PA263; PA263, +PAFA11 (10 μM)): 2; MIC (P. aeruginosa PA263; [14]): 8 µg/mL; MIC (P. aeruginosa PA263; [15]): 16 µg/mL; MIC (P. aeruginosa PA263; [16]): 4 µg/mL; MIC (P. aeruginosa PA263; PA263, Antibiotic alone): 32 µg/mL
5 | CCCCCCCCCCCCCCCC(=O)NCCCNCCCCNCCCN [PAFA4] | > 200 | > 200 | > 200 | 268 |  |  |  |  |  |  |  |  |  |  |  |  |  |  |  |  | 
6 | CCCCC/C=C\C/C=C\CCCCCCCC(=O)NCCCNCCCNCCCN [PAFA13] | 200 (≈ 90.2 µg/mL) | 50 (≈ 22.5 µg/mL) | 100 (≈ 45.1 µg/mL) | 465 |  |  |  |  |  |  |  |  |  |  |  |  |  |  |  |  | 
7 | CN(C)[C@@H]1C(O)=C(C(N)=O)C(=O)[C@@]2(O)C(O)=C3C(=O)c4c(O)cccc4[C@@](C)(O)[C@H]3[C@H](O)[C@@H]12 [OXY, oxytetracycline] |  |  |  |  | 1 | 1 | 1 | 0.008 | 1 | 1 | 0.13 | 0.008 | 8 | 8 | 2 | 32 | 1 | 0.25 | 0.5 | 0.063 | fold reduction in MIC (MIC alone / MIC with PAFA) (P. aeruginosa PA263; PA263, +PAFA11 (10 μM)): 2; MIC (P. aeruginosa PA263; [14]): 8 µg/mL; MIC (P. aeruginosa PA263; [15]): 16 µg/mL; MIC (P. aeruginosa PA263; [16]): 4 µg/mL; MIC (P. aeruginosa PA263; PA263, Antibiotic alone): 32 µg/mL
8 | CCCCCCCCCCCCCCCC(=O)NCCCNCCCN [PAFA3] | > 200 | > 200 | 200 (≈ 73.9 µg/mL) | 56 |  |  |  |  |  |  |  |  |  |  |  |  |  |  |  |  | 
